Ends that are not written are not given here. Peptide text beside a SMILES is read from it.
Legend:
E. coli K-12 BW25113 = experiment: microbe, parasite or virus in culture; format: cell-based, Escherichia coli; conditions: for MIC: starting wild-type strain of the evolution experiment, broth dilution, MS medium, 5 × 10^5 cells/mL, 30 °C, 24 h, MIC = OD600 < 0.05; for MIC in 30 °C / MIC in 37 °C: strain not given
[1] = system: E. coli K-12 BW25113 carrying ASKA plasmids; experiment: microbe, parasite or virus in culture; format: cell-based, Escherichia coli; conditions: for MIC value of E. coli K-12 BW25113 carrying the empty plasmid of the ASKA library / MIC value of E. coli K-12 BW25113 carrying the pooled plasmids of the ASKA library: MS medium + 10 µg mL−1 CHL + 500 µM IPTG, 5 × 10^5 cells, 16–18 h, 37 °C; for MIC fold change: MIC of ASKA pooled library / MIC of E.coli carrying empty ASKA plasmid; for Average fold change of the 3 replicates (MIC pooled ASKA library / MIC empty plasmid): mean of three biological replicates
Procedure, shortened: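 E. coli BW25113 transformed with the pooled ASKA ORF overexpression library, or empty-vector control, grown with CHL, induced with IPTG.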

[2] = replicate 1 (first line per drug)
[3] = replicate 2 (second line per drug)
[4] = replicate 3 (third line per drug)

Molecule	MM (median of MICs) (E. coli K-12 BW25113; median of MICs in E. coli K12) [µg/mL]	MIC (E. coli K-12 BW25113) [µg/mL]	MIC value of E. coli K-12 BW25113 carrying the empty plasmid of the ASKA library ([1]; Replicate 1) [µg/mL]	MIC value of E. coli K-12 BW25113 carrying the pooled plasmids of the ASKA library ([1]; Replicate 1) [µg/mL]	MIC value of E. coli K-12 BW25113 carrying the empty plasmid of the ASKA library ([1]; Replicate 2) [µg/mL]	MIC value of E. coli K-12 BW25113 carrying the pooled plasmids of the ASKA library ([1]; Replicate 2) [µg/mL]	MIC value of E. coli K-12 BW25113 carrying the empty plasmid of the ASKA library ([1]; Replicate 3) [µg/mL]	MIC value of E. coli K-12 BW25113 carrying the pooled plasmids of the ASKA library ([1]; Replicate 3) [µg/mL]	MIC in 30 °C (E. coli K-12 BW25113; incubation time 24 hour) [µg/mL]	MIC in 37 °C (E. coli K-12 BW25113; incubation time 24 hour) [µg/mL]	MIC in 30 °C (E. coli K-12 BW25113; incubation time 48 hour) [µg/mL]	MIC in 37 °C (E. coli K-12 BW25113; incubation time 48 hour) [µg/mL]	MIC in 30 °C (E. coli K-12 BW25113; incubation time 72 hour) [µg/mL]	MIC in 37 °C (E. coli K-12 BW25113; incubation time 72 hour) [µg/mL]	MIC fold change [1, 2]	MIC fold change [1, 3]	MIC fold change [1, 4]	Average fold change of the 3 replicates (MIC pooled ASKA library / MIC empty plasmid) [1]
SWLSKTAKKLENSAKKRISEGIAIAIQGGPR [CP1, Cecropin P1]	2.95	100	2.31	2.31	2.31	2.31	2.31	2.31	–	–	–	–	–	–	–	–	–	–
CC[C@H](C)[C@@H]1NC(=O)CNC(=O)[C@H](CCCNC(=N)N)NC(=O)[C@H](Cc2ccc(O)cc2)NC(=O)[C@@H]2CSSC[C@H](NC1=O)C(=O)N[C@@H](Cc1ccc(O)cc1)C(=O)N[C@@H](CCCNC(=N)N)C(=O)N[C@@H](CCCCN)C(=O)N[C@H](C(=O)N[C@@H](CCCNC(=N)N)C(N)=O)CSSC[C@H](NC(=O)[C@H](Cc1c[nH]c3ccccc13)NC(=O)[C@@H](N)CCCNC(=N)N)C(=O)N[C@@H](Cc1ccccc1)C(=O)N[C@@H](CCCNC(=N)N)C(=O)N[C@@H](C(C)C)C(=O)N2 [TPII, tachyplesin II] (HELM PEPTIDE1{R.W.C.F.R.V.C.Y.R.G.I.C.Y.R.K.C.R.[am]}$PEPTIDE1,PEPTIDE1,3:R3-16:R3|PEPTIDE1,PEPTIDE1,7:R3-12:R3$$$V2.0; N-terminus and C-terminus assumed; bridges inferred)	–	–	–	–	–	–	–	–	5	5	5	6	6	6	1	1	1	1.00
NC[C@H]1O[C@H](O[C@H]2[C@H](O)[C@@H](O[C@H]3O[C@H](CO)[C@@H](O)[C@H](N)[C@H]3O)[C@H](N)C[C@@H]2N)[C@H](O)[C@@H](O)[C@@H]1O [KAN, Kanamycin]	–	8	9.65	12.55	7.43	9.65	7.43	12.55	–	–	–	–	–	–	1.3	1.3	1.69	1.43

Reference: publication PMC6778101 (Nature Communications, 2019)
